Test results as given in US11713305B2, “Zinc sensors for in vivo imaging of beta-cell function by MRI” (The Board of Regents of the University of Texas System, priority 2017, dated 2023).

What was measured:
[1] = Kinetic inertness (transmetalation by Zn(II) in phosphate buffer); type: physicochemical; conditions: four equivalents of Zn^2+ in phosphate buffer (pH=7), 310 K
Source text: Shortly after the first confirmed clinical cases of nephrogenic systemic fibrosis (NSF), increased efforts have been made to design agents with high thermodynamic stability and kinetic inertness (Kallen et al., 2008; Reilly, 2008; Rofsky et al., 2008; Wiginton et al., 2008; Abujuden et al., 2009). The sensors shown here are very stable macrocyclic DO3A-monoamide derivatives with reported log KML>20. However, given that the agents reported here also have a high affinity for Zn^2+ ions, and Zn^2+ has been implicated as the major competing ion for transmetalation of Gd^3+ agents derived from linear polyamine ligands, the kinetic rate of Gd^3+ release is arguably the most critical factor in determining in vivo toxicity (Laurent et al., 2010). Using a previously published method (Laurent et al., 2010) consisting of incubating each agent with four equivalents of Zn^2+ in phosphate buffer (pH=7), we compared the kinetic stability of the agents reported here with the FDA-approved agent Magnevist® (GdDTPA, cf. FIG. 7).
Kinetic inertness was determined according to published procedures with minor modifications (Laurent et al., 2010; Silverio et al., 2009). Stock solutions of phosphate buffer (67 mM, pH=7.4), Gd(III) chelates (10 mM) and ZnCl2 (231 mM) were prepared first. Calculated volumes of stock solutions or water were pipetted into small glass vials to obtain a test solution of 300 μL with 30 mM phosphate, 1.5 mM Gd(III) chelate, and 6.0 mM Zn(II). Samples were measured 15 minutes after the sample temperature stabilized at 310 K. During the entire experiment, the samples inside the NMR tubes were kept in an incubator at 310 K. The T1 of the solutions was determined at 310 K and 0.47 T (20 MHz) at various time points within 7 days. As a reference, GdDTPA was analyzed under the same conditions. The R1^P relaxation rate is obtained by subtracting the diamagnetic contribution of the water relaxation (0.28 s-1) from the observed relaxation rate R1=(1/T1).

[2] = 17O NMR of DyL4 without and with HSA; type: physicochemical; conditions: no HSA
Protocol: To gain more insights into this process, further ^17O NMR experiments performed using DyL4 in the presence of 0.6 mM HSA (Dy^3+ was substituted for Gd^3+ for improved fitting purposes, FIGS. 2 and 3 and Table 4).
^17O NMR experiments were performed at 9.4 T on a Bruker AVANCE III NMR spectrometer. The temperature was regulated by air flow controlled by a Bruker VT unit. The samples ([Gd^3+]=25 mM; [Dy^3+]=1 mM) were prepared in ^17O enriched water (10%) with the pH being maintained at 7.4 with 100 mM Tris buffer. The sample was loaded into a 18 μL spherical bulb (Wilmad-Lab Glass, Vineland, NJ) and placed inside a 5 mm NMR tube containing 400 μL of water to eliminate any susceptibility effects. Longitudinal relaxation rates (1/T1) were obtained by the inversion recovery method and transverse relaxation rates (1/T2) were obtained by the Carr-Purcell—Meiboom—Gill spin echo technique. The acidified water (pH=3.0) containing 10% enriched ^17O water was used as a reference for the measurements. For the DyL4 complexes (no HSA and with HSA+Zinc), acidified water solutions and 1 mM LaL4+3 mM HSA with zinc (1:1) were used as the corresponding references. The corresponding fittings were performed with the Scientist 3.0 software (Micromath®).
With Dy^3+ solutions the correlation time for dipolar relaxation is governed by the electron spin relaxation time Te which is much shorter than Tm and τR. For this reason, ^17O transversal relaxation rates predominantly originates from Curie spin relaxation (Caravan et al., 2001; Karimi and Helm, 2016). The Curie relaxation is described by Fries (Vigouroux et al., 1999) and simplified by the Swift-Connick equations (Swift and Connick, 1962): […]
The water exchange rates kex and the chemical shift differences (inner-sphere water and bulk water) Δωm can be expressed as: […]
C1 and C2 are empirical constants described by Lewis and Bleaney (1972), and represent the relative contributions of the contact and pseudocontact terms. B is the external magnetic field.

kinetic stability against transmetalation [1]	1/T2m^298 [2]	A1 [2]	A2 [2]	ER [2] [kcal/mol]	ΔH^‡ [2] [kcal/mol]	SMILES	kex^298 ([2]; 17O enriched water, TRIS buffered)
kinetically inert	–	–	–	–	–	O=C(O)CN1CCN(CC(=O)O)CCN(CC(=O)NCCN(Cc2ccccn2)Cc2ccccn2)CCN(CC(=O)O)CC1 [GdL1]	–
kinetically inert	600 ± 20 10^4 s^−1	−73 ± 2 10^6rad s^−1K T^−1	0.3 ± 0.1 10^9rad s^−1K^2 T^−1	9.56 ± 2.39	9.87 ± 0.12	O=C(O)CN1CCN(CCC(=O)NCCN(Cc2ccccn2)Cc2ccccn2)CCN(CC(=O)O)CCN(CC(=O)O)CC1 [GdL2]	4.3 ± 0.1 10^6 s^−1
kinetically inert	–	–	–	–	–	O=C(O)CN1CCN(CC(=O)O)CCN(CC(=O)NCCN(CCc2ccccn2)Cc2ccccn2)CCN(CC(=O)O)CC1 [GdL4]	–
